By zone of inhibition is commonly meant the extent of the growth-free halo in a diffusion test.

Consider 11 compounds from patent US20050085413A1, “Dimeric pharmaceutical compounds and their use” (priority 2001, published 2005).

Holding throughout (assay): Kirby-Bauer disk test, zones of inhibition
Holding throughout (format): cell-based

The subject of assay [1] is Enterococcus faecalis ATCC 29212. Particulars: Enterococcus faecalis, ATCC29212; 30 μg/disk; read-out: diameter of zone of inhibition, Enterococcus faecalis ATCC 29212. How it is done: (§1) Antibiotic activities were determined using a standard Kirby-Bauer* test and are reported as diameters (in mm) of zones of inhibition for test strains. All compounds were spotted at 30 μg/disk.

The test system of assay [2] is Escherichia coli ATTCC 25922. Conditions: Escherichia coli, ATTCC25922; 30 μg/disk; read-out: diameter of zone of inhibition, Escherichia coli ATTCC 25922. How it is done:
as §1

Assay [3] relates to Pseudomonas aeuruginosa ATCC 27853. Conditions: Pseudomonas, ATCC27853; 30 μg/disk; read-out: diameter of zone of inhibition, Pseudomonas aeuruginosa ATCC 27853. How it is done: as §1
Assay [4] has as its system Staphylococcus aureus ATCC 29213. Particulars: Staphylococcus aureus, ATCC29213; 30 μg/disk; read-out: diameter of zone of inhibition, Staphylococcus aureus ATCC 29213. How it is done:
as §1

`NCC[C@H](O)C(=O)N[C@@H]1C[C@H](N)[C@@H](O[C@H]2O[C@H](CN)[C@@H](O)[C@H](O)[C@H]2O)[C@H](O)[C@H]1O[C@H]1O[C@H](CO)[C@@H](O)[C@H](N)[C@H]1O` [Amikacin, reference compound]: the zone of inhibition at 30 µg/disc in assay [1] was 6.7 mm; in assay [2] it was 18.5 mm; in assay [3], 18.4 mm; in assay [4], 18.2 mm.
As to `NCC1OC(OC2C(N)CC(N)C(OC3OC(COC(=O)NCCCCCCCCCCCCNC(=O)OCC4OC(OC5C(N)CC(N)C(OC6OC(CN)C(O)CC6N)C5O)C(O)C(N)C4O)C(O)C(N)C3O)C2O)C(N)CC1O` (stereo not drawn) [Compound 1], the zone of inhibition at 30 µg/disc in assay [1] is 6 mm; in assay [2] it was 7 mm; in assay [3], 6.3 mm; in assay [4], 8.9 mm.
For `NCC1OC(OC2C(N)CC(N)C(OC3OC(CN)C(O)C(N)C3O)C2O)C(N)CC1O` (stereo not drawn) [Compound 2] the same measures were 6.3 mm, 6.3 mm, 12.8 mm and 18.2 mm.
In the same order, the values of `NCC1OC(OC2C(N)CC(N)C(OC3OC(COC(=O)Nc4ccc(Cc5ccc(NC(=O)OCC6OC(OC7C(N)CC(N)C(OC8OC(CN)C(O)CC8N)C7O)C(O)C(N)C6O)cc5)cc4)C(O)C(N)C3O)C2O)C(N)CC1O` (stereo not drawn) [Compound 4] are 6 mm, 7.9 mm, 9.2 mm and 9.3 mm.
With `NCC1OC(OC2C(N)CC(N)C(OC3OC(CN4CCN(C(=O)CCCCCCCCCCCCCC(=O)N5CCCN(CC6OC(OC7C(N)CC(N)C(OC8OC(CN)C(O)CC8N)C7O)C(O)C(N)C6O)C5)CC4)C(O)C(N)C3O)C2O)C(N)CC1O` (stereo not drawn) [Compound 7], the zone of inhibition at 30 µg/disc in assay [1] was 6.2 mm; in assay [2], 6.5 mm; in assay [3], 8.9 mm.
For `NCC1OC(OC2C(N)CC(N)C(OC3OC(CN4CCN(C(=O)Nc5ccc(Cc6ccc(NC(=O)N7CCN(CC8OC(OC9C(N)CC(N)C(OC%10OC(CN)C(O)CC%10N)C9O)C(O)C(N)C8O)CC7)cc6)cc5)CC4)C(O)C(N)C3O)C2O)C(N)CC1O` (stereo not drawn) [Compound 15] the same measures were 6.2 mm, 7.7 mm and 9 mm.
For `NCC1OC(OC2C(N)CC(N)C(OC3OC(CN4CCN(Cc5cccc(CN6CCN(CC7OC(OC8C(N)CC(N)C(OC9OC(CN)C(O)CC9N)C8O)C(O)C(N)C7O)CC6)c5)CC4)C(O)C(N)C3O)C2O)C(N)CC1O` (stereo not drawn) [Compound 17] the same measures were 6.2 mm, 6.5 mm and 8.5 mm.
Take `NCC1OC(OC2C(N)CC(N)C(OC3OC(CN4CCN(C(=O)Nc5ccc(NC(=O)N6CCN(CC7OC(OC8C(N)CC(N)C(OC9OC(CN)C(O)CC9N)C8O)C(O)C(N)C7O)CC6)cc5)CC4)C(O)C(N)C3O)C2O)C(N)CC1O` (stereo not drawn) [Compound 19]: the zone of inhibition at 30 µg/disc was 6.2 mm in assay [1], 12.1 mm in assay [2] and 12.8 mm in assay [3].
Take `NCC1OC(OC2C(N)CC(N)C(OC3OC(CN4CCN(CCCCCCCCCCCCN5CCN(CC6OC(OC7C(N)CC(N)C(OC8OC(CN)C(O)CC8N)C7O)C(O)C(N)C6O)CC5)CC4)C(O)C(N)C3O)C2O)C(N)CC1O` (stereo not drawn) [Compound 20]: the zone of inhibition at 30 µg/disc in assay [1] came to 6.2 mm; in assay [2], 7.8 mm; in assay [3], 7.5 mm.
With `NCC1OC(OC2C(N)CC(N)C(OC3OC(CNCCCCNC(=O)Nc4ccc(Cc5ccc(NC(=O)NCCCCNCC6OC(OC7C(N)CC(N)C(OC8OC(CN)C(O)CC8N)C7O)C(O)C(N)C6O)cc5)cc4)C(O)C(N)C3O)C2O)C(N)CC1O` (stereo not drawn) [Compound 22], the zone of inhibition at 30 µg/disc in assay [3] is 6 mm.
Same read-out and setting: next, `NCC1OC(OC2C(N)CC(N)C(OC3OC(CN4CCN(C(=O)CCC(=O)N5CCN(CC6OC(OC7C(N)CC(N)C(OC8OC(CN)C(O)CC8N)C7O)C(O)C(N)C6O)CC5)CC4)C(O)C(N)C3O)C2O)C(N)CC1O` (stereo not drawn) [Compound 25]: 6 mm.
